# Data as given in US9169205B2, “Pyrrolidine derivatives, pharmaceutical compositions and uses thereof” (Boehringer Ingelheim International GmbH, priority 2012, dated 2015).
# pIC50: −log10 of the molar value.
# Biological target: human ACC2 (Homo sapiens (Human), UniProt O00763)
# Test: ACC2 assay (spectrophotometric 384 well assay, NADH-linked kinetic method)
# Format: biochemical
# Settings: hACC2 construct lacking 128 N-terminal amino acids, 25° C., 340 nm
# Experimental: Spectrophotometric 384 Well Assay
# Malonyl CoA formation by acetyl CoA carboxylases is stoichometrically linked to the consumption of ATP. ACC2 activity is measured in a NADH-linked kinetic method measuring ADP generated during the ACC reaction using a coupled lactate dehydrogenase/pyruvate kinase reaction.
# The protein is then expressed in insect cells using a baculoviral expression system. Protein purification is performed by anion exchange.
# All compounds are dissolved in dimethyl sulfoxide (DMSO) to a concentration of 10 mM.
# The enzymatic reaction is then started by addition of a mixture of NADH, acetyl Coenzyme A (both 200 μM f.c.) and ATP (500 uM f.c.). The decrease of the optical density (slope S) is then determined at 25° C. at a wavelength of 340 nm over 15 minutes in a spectrophotometric reader.
# Each assay microtiter plate contains wells with vehicle instead of compound as controls for the non-inhibited enzyme (100% CTL; ‘HIGH’) and wells without acetyl-CoA as controls for non-specific NADH degradation (0% CTL; ‘LOW’).
# Chain of human ACC2 (O00763 129-2458): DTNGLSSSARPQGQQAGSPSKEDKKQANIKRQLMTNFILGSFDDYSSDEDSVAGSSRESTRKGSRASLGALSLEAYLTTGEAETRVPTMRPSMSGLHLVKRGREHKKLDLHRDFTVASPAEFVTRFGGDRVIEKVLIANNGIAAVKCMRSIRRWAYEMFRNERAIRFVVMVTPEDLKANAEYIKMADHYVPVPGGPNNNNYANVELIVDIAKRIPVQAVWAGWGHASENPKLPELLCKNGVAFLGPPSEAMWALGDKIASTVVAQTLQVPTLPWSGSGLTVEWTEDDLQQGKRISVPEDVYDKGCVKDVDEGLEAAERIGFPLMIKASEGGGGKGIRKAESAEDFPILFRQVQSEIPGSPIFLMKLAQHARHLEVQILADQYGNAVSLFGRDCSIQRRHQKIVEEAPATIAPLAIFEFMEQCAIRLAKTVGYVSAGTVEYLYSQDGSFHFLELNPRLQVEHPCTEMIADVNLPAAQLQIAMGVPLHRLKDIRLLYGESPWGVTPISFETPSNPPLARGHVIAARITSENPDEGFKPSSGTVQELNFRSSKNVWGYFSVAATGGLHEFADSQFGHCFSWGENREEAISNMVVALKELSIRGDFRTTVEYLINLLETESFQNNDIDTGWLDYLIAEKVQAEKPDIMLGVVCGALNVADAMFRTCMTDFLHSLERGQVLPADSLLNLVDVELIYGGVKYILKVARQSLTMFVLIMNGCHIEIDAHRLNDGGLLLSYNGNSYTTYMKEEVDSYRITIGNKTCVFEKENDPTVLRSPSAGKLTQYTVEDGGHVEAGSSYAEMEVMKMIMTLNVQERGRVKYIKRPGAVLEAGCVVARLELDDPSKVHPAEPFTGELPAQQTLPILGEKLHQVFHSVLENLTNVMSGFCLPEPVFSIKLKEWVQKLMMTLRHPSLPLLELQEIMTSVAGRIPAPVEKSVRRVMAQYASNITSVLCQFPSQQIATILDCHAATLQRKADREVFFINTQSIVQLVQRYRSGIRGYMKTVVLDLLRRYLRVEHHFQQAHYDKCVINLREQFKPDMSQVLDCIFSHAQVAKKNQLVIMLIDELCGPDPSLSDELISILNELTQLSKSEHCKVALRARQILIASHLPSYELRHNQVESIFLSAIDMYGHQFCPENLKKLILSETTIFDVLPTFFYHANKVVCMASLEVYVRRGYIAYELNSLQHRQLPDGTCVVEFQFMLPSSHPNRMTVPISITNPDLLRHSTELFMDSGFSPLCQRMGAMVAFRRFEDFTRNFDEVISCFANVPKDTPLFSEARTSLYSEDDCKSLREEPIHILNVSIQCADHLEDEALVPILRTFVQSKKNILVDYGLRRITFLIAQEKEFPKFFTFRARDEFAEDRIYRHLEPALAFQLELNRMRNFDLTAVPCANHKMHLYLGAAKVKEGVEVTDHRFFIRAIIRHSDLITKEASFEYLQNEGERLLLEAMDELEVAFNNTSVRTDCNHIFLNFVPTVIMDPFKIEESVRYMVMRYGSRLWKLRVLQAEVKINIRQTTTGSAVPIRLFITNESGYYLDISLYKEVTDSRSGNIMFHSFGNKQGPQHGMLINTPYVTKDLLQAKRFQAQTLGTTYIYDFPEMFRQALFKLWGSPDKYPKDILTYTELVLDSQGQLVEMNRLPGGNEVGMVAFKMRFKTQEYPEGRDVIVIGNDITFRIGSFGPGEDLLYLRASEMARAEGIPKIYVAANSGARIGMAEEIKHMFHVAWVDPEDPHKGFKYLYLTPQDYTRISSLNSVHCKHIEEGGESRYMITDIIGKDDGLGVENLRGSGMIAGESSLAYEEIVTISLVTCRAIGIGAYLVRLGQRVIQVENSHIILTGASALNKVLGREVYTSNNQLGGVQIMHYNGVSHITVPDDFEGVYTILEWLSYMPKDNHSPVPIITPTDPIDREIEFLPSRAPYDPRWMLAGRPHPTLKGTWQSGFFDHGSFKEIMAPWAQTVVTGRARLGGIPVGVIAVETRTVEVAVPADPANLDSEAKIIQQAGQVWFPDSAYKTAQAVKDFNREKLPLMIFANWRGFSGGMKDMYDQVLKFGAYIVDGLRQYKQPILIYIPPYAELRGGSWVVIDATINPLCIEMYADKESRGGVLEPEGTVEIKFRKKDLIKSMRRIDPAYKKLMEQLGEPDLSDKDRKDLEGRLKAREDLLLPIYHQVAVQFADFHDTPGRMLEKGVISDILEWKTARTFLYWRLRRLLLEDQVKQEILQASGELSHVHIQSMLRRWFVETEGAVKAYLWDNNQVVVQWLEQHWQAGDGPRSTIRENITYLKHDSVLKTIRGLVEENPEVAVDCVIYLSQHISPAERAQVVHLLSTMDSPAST
row,Structure (SMILES),pIC50
1,C[C@H](O)C(=O)N[C@@H](C)c1ccc(O[C@@H]2CCN(c3ccc(OCC4CC4)cc3)C2)cc1 [Example 2.30],6.10
2,C[C@H](NC(=O)CC#N)c1ccc(O[C@@H]2CCN(c3ccc(OCC4CC4)cc3)C2)cc1 [Example 2.31],7.15
3,CC(O)C(=O)N[C@@H](C)c1ccc(O[C@@H]2CCN(c3ccc(OCC4CC4)cc3)C2)cc1 (stereo partly shown) [Example 2.33],6.10
4,C[C@H](NC(=O)c1ccon1)c1ccc(O[C@@H]2CCN(c3ccc(OCC4CC4)cc3)C2)cc1 [Example 2.34],7.15
5,C[C@H](NC(=O)C1(C#N)CC1)c1ccc(O[C@@H]2CCN(c3ccc(OCC4CC4)cc3)C2)cc1 [Example 2.35],6.56
6,C[C@H](NC(=O)c1ccnnc1)c1ccc(O[C@@H]2CCN(c3ccc(OCC4CC4)cc3)C2)cc1 [Example 2.36],6.70
7,Cc1nocc1C(=O)N[C@@H](C)c1ccc(O[C@@H]2CCN(c3ccc(OCC4CC4)cc3)C2)cc1 [Example 2.37],7.19
8,C[C@H](NC(=O)c1cncs1)c1ccc(O[C@@H]2CCN(c3ccc(OCC4CC4)cc3)C2)cc1 [Example 2.38],7.77
9,C[C@H](NC(=O)C(C)(C)C#N)c1ccc(O[C@@H]2CCN(c3ccc(OCC4CC4)cc3)C2)cc1 [Example 2.39],6.33
10,Cc1nc(N)sc1C(=O)N[C@@H](C)c1ccc(O[C@@H]2CCN(c3ccc(OCC4CC4)cc3)C2)cc1 [Example 2.40],6.42
11,CCC(=O)Nc1nc(C)c(C(=O)N[C@@H](C)c2ccc(OC3CCN(c4ccc(OCC5CC5)cc4)C3)cc2)s1 (stereo partly shown) [Example 2.41],7.64
12,COCC(=O)Nc1nc(C)c(C(=O)N[C@@H](C)c2ccc(OC3CCN(c4ccc(OCC5CC5)cc4)C3)cc2)s1 (stereo partly shown) [Example 2.42],7.70
13,C[C@H](NC(=O)c1cnc(N)s1)c1ccc(O[C@@H]2CCN(c3ccc(OCC4CC4)cc3)C2)cc1 [Example 2.43],6.80
14,C[C@H](NC(=O)c1cnn(C)c1Cl)c1ccc(O[C@@H]2CCN(c3ccc(OCC4CC4)cc3)C2)cc1 [Example 2.44],7.26
15,C[C@H](NC(=O)c1cn(C)nc1C(F)F)c1ccc(O[C@@H]2CCN(c3ccc(OCC4CC4)cc3)C2)cc1 [Example 2.45],6.00
16,C[C@H](NC(=O)c1cnn(C(F)F)c1)c1ccc(O[C@@H]2CCN(c3ccc(OCC4CC4)cc3)C2)cc1 [Example 2.46],6.42
17,Cc1c(C(=O)N[C@@H](C)c2ccc(O[C@@H]3CCN(c4ccc(OCC5CC5)cc4)C3)cc2)cnn1C [Example 2.47],6.41
18,C[C@H](NC(=O)c1c[nH]nc1C(F)(F)F)c1ccc(O[C@@H]2CCN(c3ccc(OCC4CC4)cc3)C2)cc1 [Example 2.48],6.35
19,C[C@H](NC(=O)c1cnn2ccn(C)c12)c1ccc(O[C@@H]2CCN(c3ccc(OCC4CC4)cc3)C2)cc1 [Example 2.49],6.05
20,C[C@H](NC(=O)c1cnn(C)c1N)c1ccc(O[C@@H]2CCN(c3ccc(OCC4CC4)cc3)C2)cc1 [Example 2.50],7.19
21,C[C@H](NC(=O)c1cnn(CCO)c1)c1ccc(O[C@@H]2CCN(c3ccc(OCC4CC4)cc3)C2)cc1 [Example 2.51],6.31

row,Structure (SMILES),pIC50
1,C[C@H](NC(=O)c1cnn(CC(F)F)c1)c1ccc(O[C@@H]2CCN(c3ccc(OCC4CC4)cc3)C2)cc1 [Example 2.52],6.09
2,CCOc1ccc(N2CC[C@@H](Oc3ccc([C@H](C)NC(=O)c4sc(NC(=O)COCc5ccccc5)nc4C)cc3)C2)cc1 [Example 2.54],7.35
3,CCOc1ccc(N2CC[C@@H](Oc3ccc([C@H](C)NC(=O)c4sc(NC(=O)COC(C)=O)nc4C)cc3)C2)cc1 [Example 2.55],7.28
4,C[C@H](NC(=O)c1cn(C)nc1C#N)c1ccc(O[C@@H]2CCN(c3ccc(OCC4CC4)cc3)C2)cc1 [Example 2.56],6.38
5,C[C@H](NC(=O)c1c[nH]nc1C#N)c1ccc(O[C@@H]2CCN(c3ccc(OCC4CC4)cc3)C2)cc1 [Example 2.57],6.91
6,Cc1cc(OC2CC2)ccc1N1CC[C@@H](Oc2ccc([C@H](C)NC(=O)CO)cc2)C1 [Example 2.58],6.13
7,Cc1cc(OC2CC2)ccc1N1CC[C@@H](Oc2ccc([C@H](C)NC(=O)CC#N)cc2)C1 [Example 2.59],6.17
8,Cc1cc(OC2CC2)ccc1N1CC[C@@H](Oc2ccc([C@H](C)NC(=O)c3cncs3)cc2)C1 [Example 2.60],6.59
9,Cc1cc(OC2CC2)ccc1N1CC[C@@H](Oc2ccc([C@H](C)NC(=O)c3cnco3)cc2)C1 [Example 2.61],6.40
10,CCC(=O)N[C@@H](C)c1ccc(O[C@@H]2CCN(c3ccc(OC4CC4)cc3C)C2)cc1 [Example 2.62],6.39
11,CC(=O)Nc1nc(C)c(C(=O)N[C@@H](C)c2ccc(O[C@@H]3CCN(c4ccc(OC5CC5)cc4C)C3)cc2)s1 [Example 2.63],6.62
12,Cc1cc(OC2CC2)ccc1N1CC[C@@H](Oc2ccc([C@H](C)NC(=O)c3cn[nH]c3)cc2)C1 [Example 2.64],6.45
13,Cc1cc(OC2CC2)ccc1N1CC[C@@H](Oc2ccc([C@H](C)NC(=O)c3cnoc3C)cc2)C1 [Example 2.65],7.05
14,"C[C@H](NC(=O)N(C)C)c1ccc(O[C@@H]2CCN(c3ccc(OCC4CC4)cc3)C2)cc1 [Example 3.1, 3-((S)-1-(4-((R)-1-(4-(cyclopropylmethoxy)phenyl)pyrrolidin-3-yloxy)phenyl)ethyl)-1,1-dimethylurea]",7.13
15,CCNC(=O)N[C@@H](C)c1ccc(OC2CCN(c3ccc(OCC4CC4)cc3)C2)cc1 (stereo partly shown) [Example 3.2],7.26
16,C[C@H](NC(=O)N1CCC1)c1ccc(OC2CCN(c3ccc(OCC4CC4)cc3)C2)cc1 (stereo partly shown) [Example 3.3],5.90
17,CCN(C)C(=O)N[C@@H](C)c1ccc(OC2CCN(c3ccc(OCC4CC4)cc3)C2)cc1 (stereo partly shown) [Example 3.4],6.78
18,C[C@H](NC(=O)N1CCOCC1)c1ccc(OC2CCN(c3ccc(OCC4CC4)cc3)C2)cc1 (stereo partly shown) [Example 3.5],6.70
19,C[C@H](NC(=O)N(C)Cc1ccncn1)c1ccc(OC2CCN(c3ccc(OCC4CC4)cc3)C2)cc1 (stereo partly shown) [Example 3.6],6.30
20,C[C@H](NC(=O)Nc1ccon1)c1ccc(OC2CCN(c3ccc(OCC4CC4)cc3)C2)cc1 (stereo partly shown) [Example 3.7],7.25
21,CNC(=O)N[C@@H](C)c1ccc(OC2CCN(c3ccc(OCC4CC4)cc3)C2)cc1 (stereo partly shown) [Example 3.8],7.14

row,Structure (SMILES),pIC50
1,CNC(=O)N[C@@H](C)c1ccc(OC2CCN(c3ccc(OC(C)C)cc3)C2)cc1 (stereo partly shown) [Example 3.9],6.69
2,CCNC(=O)N[C@@H](C)c1ccc(OC2CCN(c3ccc(OC(C)C)cc3)C2)cc1 (stereo partly shown) [Example 3.10],6.66
3,CC(C)Oc1ccc(N2CCC(Oc3ccc([C@H](C)NC(=O)N4CCOCC4)cc3)C2)cc1 (stereo partly shown) [Example 3.12],5.89
4,Cc1cc(OC2CC2)ccc1N1CCC(Oc2ccc([C@H](C)NC(=O)N3CCOCC3)cc2)C1 (stereo partly shown) [Example 3.13],6.06
5,"COCCCOc1ccc(N2CC[C@@H](Oc3ccc([C@H](C)NC(C)=O)cc3)C2)cc1 [Example 4.1, N—((S)-1-(4-((R)-1-(4-(3-methoxypropoxy)phenyl)pyrrolidin-3-yloxy)phenyl)ethyl)-acetamide]",6.34
6,CCOC(=O)C1(Oc2ccc(N3CCC(Oc4ccc([C@H](C)NC(C)=O)cc4)C3)cc2)CCC1 (stereo partly shown) [Example 4.2],6.51
7,CCC(C)Oc1ccc(N2CCC(Oc3ccc([C@H](C)NC(C)=O)cc3)C2)cc1 (stereo partly shown) [Example 4.3],6.77
8,COCCOc1ccc(N2CCC(Oc3ccc([C@H](C)NC(C)=O)cc3)C2)cc1 (stereo partly shown) [Example 4.4],6.25
9,CC(=O)N[C@@H](C)c1ccc(OC2CCN(c3ccc(OCc4ccccc4)cc3)C2)cc1 (stereo partly shown) [Example 4.5],6.18
10,CC(=O)N[C@@H](C)c1ccc(OC2CCN(c3ccc(OCC(F)F)cc3)C2)cc1 (stereo partly shown) [Example 4.6],6.44
11,CC(=O)N[C@@H](C)c1ccc(OC2CCN(c3ccc(OCC(F)(F)C(F)F)cc3)C2)cc1 (stereo partly shown) [Example 4.7],6.20
12,"COC(=O)N[C@@H](C)c1ccc(O[C@@H]2CCN(c3ccc(OCC4CC4)cc3)C2)cc1 [Example 5.1, Methyl-(S)-1-(4-((R)-1-(4-(cyclopropylmethoxy)phenyl)pyrrolidin-3-yloxy)phenyl)-ethylcarbamate]",7.31
13,"C[C@H](NC(=O)C(F)(F)F)c1ccc(O[C@@H]2CCN(c3ccc(OCC4CC4)cc3)C2)cc1 [Example 6, N—((S)-1-(4-((R)-1-(4-(Cyclopropylmethoxy)phenyl)pyrrolidin-3-yloxy)phenyl)-ethyl)-2,2,2-trifluoroacetamide]",7.41
14,"CC(=O)N[C@@H](C)c1ccc(OC2CCN(c3ccc(OCC4CC4)cc3)C2)cn1 (stereo partly drawn) [Example 7.1, N—((S)-1-(5-((R)-1-(4-(Cyclopropylmethoxy)phenyl)pyrrolidin-3-ylox)pyridin-2-yl)ethyl)acetamide]",5.75
15,CC(=O)NC(C)c1ccc(OC2CCN(c3ccc(OCC4CC4)cc3)C2)cc1F (stereo not shown) [Example 7.2],6.12
16,CC(=O)NC(C)c1ccc(OC2CCN(c3ccc(OCC4CC4)cc3)C2)c(F)c1 (stereo not shown) [Example 7.3],6.70
17,"C[C@H](NC(=O)C1CC1)c1ccc(O[C@@H]2CCN(c3ccc(OCC4CC4)cc3)C2)cc1 [Example 8.1, N—((S)-1-(4-((R)-1-(4-(Cyclopropylmethoxy)phenyl)pyrrolidin-3-yloxy)phenyl)-ethyl)-cyclopropanecarboxamide]",6.43
18,CC(=O)Nc1cc(C(=O)N[C@@H](C)c2ccc(OC3CCN(c4ccc(OCC5CC5)cc4)C3)cc2)on1 (stereo partly shown) [Example 8.2],6.44
19,C[C@H](NC(=O)c1ccno1)c1ccc(O[C@@H]2CCN(c3ccc(OCC4CC4)cc3)C2)cc1 [Example 8.3],7.21
